Results published in paper PMC3995012, “The Cyanobactin Heterocyclase Enzyme: A Processive Adenylase That Operates with a Defined Order of Reaction” (Angewandte Chemie (International Ed. in English), 2013).
“Also recorded” adds a separate entry of the source. Like-named read-outs stand apart in the source and are kept apart here.

Columns and labels:
TruD [1] = test: ITC, injection of nucleosides into TruD solutions; format: binding, Prochloron spp.; settings: for Kd: one-site model
Description: (§1) TruD solutions. The top panels show raw data representing the response to injections, the bottom panels show integrated heats of injections (!) and the best fit (— ) to the […]
(§2) nucleoside. […]
(§3) ITC experiments were carried out using a VP-ITC instrument (MicroCal) in TruD sample buffer (150 mM NaCl, 10 mM HEPES pH 7.4, 1 mM TCEP) at 20 or 25 °C.
(§4) Protein concentrations were determined using absorbance at 280 nm and predicted extinction coefficients (ProtParam, ExPASy) used. The concentration of PatEY53A, which lacks absorbance at 280 nm, was based on absorbance at 230 nm. All solutions were dialyzed overnight. Nucleotides and the #25 peptide were dissolved in TruD sample buffer and the pH was adjusted with small amounts of 1 M NaOH to match the buffer. Cell and syringe solutions were degassed at 18 or 23 °C for 15 min.
Titrations were performed as follows: one injection of 2 µl followed by injections of 5-10 µl at an injection speed of 0.5 µl/min. The stirring speed was 307 rpm; the delay between the injections was 4-6 min. To take into account heats of dilution, blank titrations were performed by injecting ligand solution into TruD sample buffer and the averaged heat of dilution was subtracted from the main experiment. Blank titrations were omitted in cases of saturated binding where the averaged residual signal of the last injections was used to determine the heat of dilution. Raw data were processed using MicroCal Origin software. […]
(§5) NMR experiments were performed at 10 °C on a Bruker DRX500 spectrometer equipped with a 5mm TXIz probe. […] Aliquots of 646 µM TruD were added to final concentrations of 50, 100 and 150 µM, and HSQCs were recorded after each addition. For heterocyclization monitoring, the samples contained 200 µM u-15N-PatE precursor peptide and were incubated at 10 °C with 5 µM TruD in heterocyclization buffer with 5% D2O, and spectra were recorded at progressively longer intervals (initially 0.5 h, then 1 h, then 2 h). […]
(§6) For sequential assignment, a 1.0 mM sample of u-13C, 15N-PatE precursor peptide in heterocyclization buffer was prepared. […] Equivalent spectra were recorded for fully heterocyclized u-13C, 15N-PatE (concentration 1.0 mM) and a sample where the enzymatic transformation was interrupted after 8 h by gel filtration on a Superdex S75 column (GE Healthcare) in TruD sample buffer (see ITC experimental section), thus allowing assignment of the reaction intermediate. All spectra were processed with NMRPipe ,$- and analyzed with CCPN Analysis 2.1 ,%-.
31P NMR experiments were performed at 10 °C on a Bruker AVANCE III spectrometer equipped with a 5mm BBFO+ (Smart) probe and required the substitution of sample buffer TCEP with DTT. […] 31P NMR spectra were recorded with broadband power-gated 1H decoupling and relaxation delay D1 = 1.5s. […]

TruD [2] = molecular target: T1, TruD (uncultured Prochloron sp. 06037A, UniProt B2KYG8); test: Isothermal titration calorimetry (VP-ITC), nucleotide injected into TruD in 150 mM NaCl, 10 mM HEPES pH 7.4, 1 mM TCEP at 20 or 25 °C, fitted to a one-site model.; format: binding
T1 construct: codon-optimized full-length, N-terminal His6-tag removed by TEV protease, expressed in E. coli BL21 (DE3); homodimer with structural Zn
T1 sequence (B2KYG8 2-781): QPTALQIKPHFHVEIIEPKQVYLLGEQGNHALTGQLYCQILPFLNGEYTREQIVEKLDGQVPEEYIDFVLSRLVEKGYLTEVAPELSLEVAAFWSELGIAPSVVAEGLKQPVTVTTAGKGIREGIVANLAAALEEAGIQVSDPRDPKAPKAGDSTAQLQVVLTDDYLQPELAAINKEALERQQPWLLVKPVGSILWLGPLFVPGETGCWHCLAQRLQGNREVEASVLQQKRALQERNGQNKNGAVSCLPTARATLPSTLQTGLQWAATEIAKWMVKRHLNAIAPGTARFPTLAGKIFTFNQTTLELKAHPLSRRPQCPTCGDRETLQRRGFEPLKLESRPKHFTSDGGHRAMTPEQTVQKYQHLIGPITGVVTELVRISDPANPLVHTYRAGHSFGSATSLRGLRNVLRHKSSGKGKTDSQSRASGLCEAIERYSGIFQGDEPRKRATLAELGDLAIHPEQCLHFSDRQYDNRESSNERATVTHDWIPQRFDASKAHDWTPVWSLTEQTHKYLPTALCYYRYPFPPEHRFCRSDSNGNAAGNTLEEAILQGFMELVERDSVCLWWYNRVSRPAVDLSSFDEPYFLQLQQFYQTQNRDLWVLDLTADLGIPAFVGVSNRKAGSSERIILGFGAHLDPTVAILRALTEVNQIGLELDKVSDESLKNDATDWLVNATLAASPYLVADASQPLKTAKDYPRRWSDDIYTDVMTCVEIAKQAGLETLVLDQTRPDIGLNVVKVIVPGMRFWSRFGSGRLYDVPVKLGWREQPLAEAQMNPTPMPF
Description: as §1, §2, §3, §4
Titrations were performed as follows: one injection of 2 µl followed by injections of 5-10 µl at an injection speed of 0.5 µl/min. The stirring speed was 307 rpm; the delay between the injections was 4-6 min. […]
as §5
as §6, with “,%-. […]” for “,%-.”

TruD [3] = test: Heterocyclization reactions analysed by MS (ESI, MALDI, fragmentation); format: biochemical, Prochloron spp.; settings: for use as nucleotide cofactor for heterocyclization of PatE2 by TruD: PatE2 with TruD, LC-MS and HSQC NMR of products
Description: for 20 min followed by passage through a 0.45 "m filter. The cleared lysate was applied to a Ni-sepharose FF column (GE Healthcare) equilibrated with urea lysis buffer and protein eluted with urea lysis buffer containing 250 mM imidazole. The eluate was then supplemented with 10 mM DTT and incubated at room temperature for 30 min before size-exclusion chromatography (Superdex 75, GE Healthcare) in 150 mM NaCl, 10 mM HEPES pH 7.4, 1 mM TCEP. Peak fractions were pooled and […]
PatE for NMR studies was produced as above, except that E. coli were grown in M9 minimal medium ,*- prepared with 15NH4Cl (Sigma) and additionally with 13C6-glucose (Sigma) for doubly labeled protein. Cells were grown to an optical density at 600 nm of 0.6, at which point expression was induced by addition of 0.5 mM IPTG and grown over night at 30 °C.
Heterocyclization reactions
For all heterocyclization reactions for MS analysis, 100 µM substrate (PatE, PatE mutants and peptides) was incubated with 0.5 µM enzyme in heterocyclization buffer (150 mM NaCl, 10 mM HEPES pH 7.4, 1 mM TCEP, 5 mM ATP, 5 mM MgCl2) for 60 min, 70 min or 16 h at 37 °C. Samples were analyzed by ESI or MALDI MS (LCT, Micromass or 4800 MALDI TOF/TOF Analyzer, ABSciex). […]
For heterocyclization reactions to be monitored by NMR the PatE concentration was increased to 200 µM and 5 µM TruD was used and the incubation temperature reduced to 10 °C. For reaction endpoints analyzed by 31P NMR samples were […]
The assay is based on coupling the TruD-dependent formation of AMP to the lactate dehydrogenase oxidation decay of NADH with NADH concentration monitored by 340 nm absorbance. […]
each added to the assay in this order. […] The decay of NADH concentration were recorded for 40 min and calculated by using extinction coefficient for NADH (#340 = […]
MALDI MS was acquired using a 4800 MALDI TOF/TOF Analyzer (ABSciex, Foster City, CA) equipped with a Nd:YAG 355 nm laser in linear mode and calibrated using the [M+H]+ and [M+2H]2+ peaks of ubiquitin. The spot was analyzed in positive MS mode between 3000 and 10000 m/z, by averaging 1000 laser spots. […]

[4] = VP-ITC, 150 mM NaCl, 10 mM HEPES pH 7.4, 1 mM TCEP, 20 or 25 °C, read-out: KD

Molecule: Nc1ncnc2c1ncn2[C@@H]1O[C@H](COP(=O)(O)OP(=O)(O)O)[C@@H](O)[C@H]1O [ADP]
- Kd (TruD [1]; ADP decomposes slowly, only the rapidly emerging endothermic parts of the ITC signals analysed, read-out: apparent KD): 20 µM

Molecule: Nc1ncnc2c1ncn2[C@@H]1O[C@H](COP(=O)(O)O)[C@@H](O)[C@H]1O [AMP, adenosine 5'-monophosphate]
- Kd (TruD [2]; read-out: KD): 12 µM

Molecule: Nc1ncnc2c1ncn2[C@@H]1O[C@H](COP(=O)(O)OP(=O)(O)O)[C@@H](O)[C@H]1O [ADP, adenosine 5'-diphosphate]
- Kd (TruD [2]; read-out: KD): 20 µM

Molecule: Nc1ncnc2c1ncn2[C@@H]1O[C@H](COP(=O)(O)O)[C@@H](O)[C@H]1O [AMP]
- Kd (TruD [1]; [4]): 12 µM

Molecule: ITACITFC [core peptide, the eight-residue core peptide itself]
- processing (heterocyclization of cysteines) by TruD (TruD [3]; 100 µM substrate, 0.5 µM enzyme, 150 mM NaCl, 10 mM HEPES pH 7.4, 1 mM TCEP, 5 mM ATP, 5 mM MgCl2, 60 min, 70 min or 16 h at 37 °C, ESI or MALDI MS): No reaction

Molecule: Nc1ncnc2c1ncn2[C@@H]1O[C@H](COP(=O)(O)OP(=O)(O)OP(=O)(O)O)[C@@H](O)[C@H]1O [ATP]
- Kd (TruD [1]; [4]): 19 µM

Molecule: Nc1ncnc2c1ncn2[C@@H]1O[C@H](COP(=O)(O)OP(=O)(O)OP(=O)(O)O)[C@@H](O)[C@H]1O [ATP, adenosine 5'-triphosphate]
- Kd (TruD [2]): 19 µM

Molecule: Cc1cn([C@H]2C[C@H](O)[C@@H](COP(=O)(O)OP(=O)(O)OP(=O)(O)O)O2)c(=O)[nH]c1=O [dTTP]
- binding to TruD in ITC experiments (TruD [1]; injection into a TruD solution): not report binding under these conditions; also recorded: does not bind
- use as nucleotide cofactor for heterocyclization of PatE2 by TruD (TruD [3]): can catalyze heterocyclization of cysteine

Molecule: Nc1nc2c(ncn2[C@@H]2O[C@H](COP(=O)(O)OP(=O)(O)OP(=O)(O)O)[C@@H](O)[C@H]2O)c(=O)[nH]1 [GTP]
- use as nucleotide cofactor for heterocyclization of PatE2 by TruD (TruD [3]): can catalyze heterocyclization of cysteine
